Assay results as given in article PMC4718399 (Nature chemical biology, 2015).

Experiments:
β2R [1] = target: T1, β2R (Homo sapiens, UniProt P07550, N187E, form not given); type: biochemical; conditions: 200μM solubilized lipid; for modulation of β2R activation by solubilized phospholipid: 200μM isoproterenol
β2R [2] = target: T1, β2R; assay: Bimane fluorescence spectroscopy; type: biochemical; conditions: for basal (agonist-free) bimane emission λmax: bimane-labelled receptor reconstituted in rHDL of the given lipid, no ligand; for rate and magnitude of change in λmax upon agonist: rHDL of the given lipid, 200 μM isoproterenol, relative to basal fluorescence in detergent
β2R [3] = target: T1, β2R; assay: Mass spectrometry quantification of lipids bound to purified β2R; conditions: β2R purified from Sf9 cells with 0.5% DDM

CCCCCCCC/C=C\CCCCCCCC(=O)OC[C@H](COP(=O)(O)OC[C@H](N)C(=O)O)OC(=O)CCCCCCC/C=C\CCCCCCCC [DOPS]
modulation of β2R activation by solubilized phospholipid (β2R [1]): positive effect albeit not as strong

CCCCCCCC/C=C\CCCCCCCC(=O)OC[C@H](COP(=O)([O-])OCC[N+](C)(C)C)OC(=O)CCCCCCC/C=C\CCCCCCCC [DOPC]
basal (agonist-free) bimane emission λmax (β2R [2]): about 450 nm
rate and magnitude of change in λmax upon agonist (β2R [2]): intermediate
modulation of β2R activation by solubilized phospholipid (β2R [1]): little or no effect

CCCCCCCC/C=C\CCCCCCCC(=O)OC[C@H](COP(=O)(O)OCCN)OC(=O)CCCCCCC/C=C\CCCCCCCC [DOPE]
basal (agonist-free) bimane emission λmax (β2R [2]): about 450 nm
rate and magnitude of change in λmax upon agonist (β2R [2]): smallest change and slowest rate of change
modulation of β2R activation by solubilized phospholipid (β2R [1]): little or no effect

phosphatidylglycerol [PG]
share of all β2R-bound lipids (β2R [3]): over 16%

CCCCCCCC/C=C\CCCCCCCC(=O)OC[C@H](COP(=O)(O)OCC(O)CO)OC(=O)CCCCCCC/C=C\CCCCCCCC (stereo partly shown) [DOPG]
basal (agonist-free) bimane emission λmax (β2R [2]): about 455 nm
rate and magnitude of change in λmax upon agonist (β2R [2]): fastest rate of change and the largest shift in λmax
basal λmax shift (β2R [1]; 1μM β2R, 500μM DDM, 600μM cholate): 4 nm
modulation of β2R activation by solubilized phospholipid (β2R [1]): strongest positive modulator
share of all β2R-bound lipids (β2R [3]): over 7%
